Test results published in patent US12421232B2, “Kinase inhibitor compounds and compositions and methods of use” (ICAHN SCHOOL OF MEDICINE AT MOUNT SINAI, priority 2018, dated 2025).
One block for each compound: values may come before it.

Legend:
[1] = tested on: human β-cells (dispersed human islet cells); test: Human β-cell proliferation assay (Ki67 and insulin staining); format: cell-based; conditions: for Human β-Cell proliferation: 96 hours
[2] = molecular target: T1, IRAK1 (Homo sapiens, UniProt P51617); test: KINOMEscan Assay (DiscoverX); format: binding; conditions: IRAK1; 10 μM
T1 construct: purchased DiscoverX

[3] = molecular target: T2, CSNK1G2 (Homo sapiens, UniProt P78368); test: KINOMEscan Assay (DiscoverX); format: binding; conditions: CSNK1G2; 10 μM
T2 construct: purchased DiscoverX

[4] = molecular target: T3, HIPK2 (Homo sapiens, UniProt Q9H2X6); test: KINOMEscan Assay (DiscoverX); format: binding; conditions: HIPK2; 10 μM
T3 construct: purchased DiscoverX

[5] = molecular target: T4, JAK3(JH1DOMAIN-CATALYTIC) (Homo sapiens, UniProt P52333); test: KINOMEscan Assay (DiscoverX); format: binding; conditions: JAK3(JH1DOMAIN-[…]); 10 μM; read-out: % DMSO Ctrl
T4 construct: JH1DOMAIN; purchased DiscoverX

[6] = molecular target: T5, CSNK2A1 (Homo sapiens, UniProt P68400); test: KINOMEscan Assay (DiscoverX); format: binding; conditions: CSNK2A1; 10 μM
T5 construct: purchased DiscoverX

[7] = tested on: NFAT2-GFP nuclear translocation in R7T1 rodent beta cells; test: NFAT2 translocation assay; format: cell-based; conditions: 10 μM, 24 hours
Source text: NFAT2T Translocation Assay. […] At least 1000 cells were counted.

[8] = molecular target: T6, VPS34 (Homo sapiens, UniProt Q8NEB9); test: KINOMEscan Assay (DiscoverX); format: binding; conditions: VPS34; 10 μM
T6 construct: purchased DiscoverX

[9] = molecular target: T7, PIK3CG (Homo sapiens, UniProt P48736); test: KINOMEscan Assay (DiscoverX); format: binding; conditions: read-out: % DMSO Ctrl
T7 construct: purchased DiscoverX

[10] = molecular target: T8, HIPK3 (Homo sapiens, UniProt Q9H422); test: KINOMEscan Assay (DiscoverX); format: binding; conditions: HIPK3; 10 μM
T8 construct: purchased DiscoverX

[11] = molecular target: T9, FLT3(D835V) (Homo sapiens, UniProt P36888, D835V); test: KINOMEscan Assay (DiscoverX); format: binding; conditions: FLT3(D835V) mutant; 10 μM; read-out: % DMSO Ctrl
T9 construct: purchased DiscoverX
T9 sequence (P36888 27-993 D835V): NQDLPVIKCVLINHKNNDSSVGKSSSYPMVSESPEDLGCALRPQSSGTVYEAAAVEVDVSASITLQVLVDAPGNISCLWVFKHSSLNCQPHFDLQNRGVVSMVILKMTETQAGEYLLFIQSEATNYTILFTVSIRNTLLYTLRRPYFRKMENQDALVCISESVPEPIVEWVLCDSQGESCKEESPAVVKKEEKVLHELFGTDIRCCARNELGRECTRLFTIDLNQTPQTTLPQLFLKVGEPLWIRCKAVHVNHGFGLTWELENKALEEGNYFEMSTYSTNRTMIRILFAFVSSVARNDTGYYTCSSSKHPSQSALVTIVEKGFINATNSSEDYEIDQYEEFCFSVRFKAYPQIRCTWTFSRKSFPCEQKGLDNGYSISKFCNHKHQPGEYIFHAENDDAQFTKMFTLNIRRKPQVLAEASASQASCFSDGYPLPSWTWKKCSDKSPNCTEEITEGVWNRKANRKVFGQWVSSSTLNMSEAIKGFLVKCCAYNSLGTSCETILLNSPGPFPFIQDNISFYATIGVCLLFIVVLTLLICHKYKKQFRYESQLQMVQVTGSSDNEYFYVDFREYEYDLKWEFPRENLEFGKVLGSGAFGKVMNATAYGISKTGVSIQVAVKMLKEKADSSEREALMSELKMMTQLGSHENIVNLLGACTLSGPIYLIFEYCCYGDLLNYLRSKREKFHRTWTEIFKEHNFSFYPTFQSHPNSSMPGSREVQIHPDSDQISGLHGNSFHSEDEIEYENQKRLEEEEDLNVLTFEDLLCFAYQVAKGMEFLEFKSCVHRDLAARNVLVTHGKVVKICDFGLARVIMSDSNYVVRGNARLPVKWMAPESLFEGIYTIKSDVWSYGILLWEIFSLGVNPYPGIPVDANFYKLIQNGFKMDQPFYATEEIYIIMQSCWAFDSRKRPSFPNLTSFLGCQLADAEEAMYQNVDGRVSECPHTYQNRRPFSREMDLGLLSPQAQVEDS

[12] = molecular target: T10, PIM3 (Homo sapiens, UniProt Q86V86); test: KINOMEscan Assay (DiscoverX); format: binding; conditions: PIM3; 10 μM; read-out: % DMSO Ctrl
T10 construct: purchased DiscoverX

[13] = molecular target: DYRK1A (Homo sapiens, UniProt Q13627); test: FRET-based LanthaScreen Eu Kinase Binding Assay (Life Technologies)
[14] = tested on: FLT3(ITD); test: KINOMEscan Assay (DiscoverX); format: binding; conditions: FLT3(ITD) mutant; 10 μM
[15] = tested on: FLT3(ITD,D835V); test: KINOMEscan Assay (DiscoverX); format: binding; conditions: FLT3(ITD,D835V) mutant; 10 μM
[16] = 10 μM, KI67 labeling of insulin cells

T4 sequence (P52333 822-1111 limits assumed): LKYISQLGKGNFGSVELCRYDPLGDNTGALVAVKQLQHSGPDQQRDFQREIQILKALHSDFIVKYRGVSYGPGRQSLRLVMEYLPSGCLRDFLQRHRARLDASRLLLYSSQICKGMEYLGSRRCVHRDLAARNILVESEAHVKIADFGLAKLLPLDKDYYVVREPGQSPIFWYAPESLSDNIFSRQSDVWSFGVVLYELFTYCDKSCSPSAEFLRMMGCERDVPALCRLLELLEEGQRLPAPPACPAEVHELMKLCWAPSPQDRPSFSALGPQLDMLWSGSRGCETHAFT
T3 sequence (Q9H2X6 whole entry): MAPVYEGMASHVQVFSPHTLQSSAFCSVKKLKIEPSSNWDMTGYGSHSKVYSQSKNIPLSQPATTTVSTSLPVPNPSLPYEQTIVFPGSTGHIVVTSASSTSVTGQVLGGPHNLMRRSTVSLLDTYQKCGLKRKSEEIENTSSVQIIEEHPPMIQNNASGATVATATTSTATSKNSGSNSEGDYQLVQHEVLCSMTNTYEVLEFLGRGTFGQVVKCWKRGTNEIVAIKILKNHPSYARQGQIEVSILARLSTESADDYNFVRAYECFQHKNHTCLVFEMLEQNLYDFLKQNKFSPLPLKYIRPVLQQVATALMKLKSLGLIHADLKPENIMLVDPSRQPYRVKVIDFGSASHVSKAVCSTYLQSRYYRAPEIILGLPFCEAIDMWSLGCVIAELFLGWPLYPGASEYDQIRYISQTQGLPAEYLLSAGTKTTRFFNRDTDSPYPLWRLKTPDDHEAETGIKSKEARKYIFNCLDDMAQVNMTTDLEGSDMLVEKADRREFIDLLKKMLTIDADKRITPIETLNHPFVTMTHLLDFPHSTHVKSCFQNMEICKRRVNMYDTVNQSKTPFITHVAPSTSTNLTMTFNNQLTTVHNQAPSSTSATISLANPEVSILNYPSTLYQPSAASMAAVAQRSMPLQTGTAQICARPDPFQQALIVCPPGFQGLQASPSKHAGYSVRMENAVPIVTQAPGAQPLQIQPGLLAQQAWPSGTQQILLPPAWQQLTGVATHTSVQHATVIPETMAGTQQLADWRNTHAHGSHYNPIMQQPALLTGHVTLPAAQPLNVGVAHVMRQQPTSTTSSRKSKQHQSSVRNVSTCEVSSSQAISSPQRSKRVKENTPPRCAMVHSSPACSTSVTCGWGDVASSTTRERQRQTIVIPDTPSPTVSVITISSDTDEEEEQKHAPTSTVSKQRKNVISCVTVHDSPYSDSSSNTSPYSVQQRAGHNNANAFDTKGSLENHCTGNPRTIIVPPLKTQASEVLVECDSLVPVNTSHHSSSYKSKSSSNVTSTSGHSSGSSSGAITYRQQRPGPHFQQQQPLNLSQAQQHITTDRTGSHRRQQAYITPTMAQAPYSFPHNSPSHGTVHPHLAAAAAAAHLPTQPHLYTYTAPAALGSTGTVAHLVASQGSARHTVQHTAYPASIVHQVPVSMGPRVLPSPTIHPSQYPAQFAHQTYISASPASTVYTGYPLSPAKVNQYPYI
T8 sequence (Q9H422 whole entry): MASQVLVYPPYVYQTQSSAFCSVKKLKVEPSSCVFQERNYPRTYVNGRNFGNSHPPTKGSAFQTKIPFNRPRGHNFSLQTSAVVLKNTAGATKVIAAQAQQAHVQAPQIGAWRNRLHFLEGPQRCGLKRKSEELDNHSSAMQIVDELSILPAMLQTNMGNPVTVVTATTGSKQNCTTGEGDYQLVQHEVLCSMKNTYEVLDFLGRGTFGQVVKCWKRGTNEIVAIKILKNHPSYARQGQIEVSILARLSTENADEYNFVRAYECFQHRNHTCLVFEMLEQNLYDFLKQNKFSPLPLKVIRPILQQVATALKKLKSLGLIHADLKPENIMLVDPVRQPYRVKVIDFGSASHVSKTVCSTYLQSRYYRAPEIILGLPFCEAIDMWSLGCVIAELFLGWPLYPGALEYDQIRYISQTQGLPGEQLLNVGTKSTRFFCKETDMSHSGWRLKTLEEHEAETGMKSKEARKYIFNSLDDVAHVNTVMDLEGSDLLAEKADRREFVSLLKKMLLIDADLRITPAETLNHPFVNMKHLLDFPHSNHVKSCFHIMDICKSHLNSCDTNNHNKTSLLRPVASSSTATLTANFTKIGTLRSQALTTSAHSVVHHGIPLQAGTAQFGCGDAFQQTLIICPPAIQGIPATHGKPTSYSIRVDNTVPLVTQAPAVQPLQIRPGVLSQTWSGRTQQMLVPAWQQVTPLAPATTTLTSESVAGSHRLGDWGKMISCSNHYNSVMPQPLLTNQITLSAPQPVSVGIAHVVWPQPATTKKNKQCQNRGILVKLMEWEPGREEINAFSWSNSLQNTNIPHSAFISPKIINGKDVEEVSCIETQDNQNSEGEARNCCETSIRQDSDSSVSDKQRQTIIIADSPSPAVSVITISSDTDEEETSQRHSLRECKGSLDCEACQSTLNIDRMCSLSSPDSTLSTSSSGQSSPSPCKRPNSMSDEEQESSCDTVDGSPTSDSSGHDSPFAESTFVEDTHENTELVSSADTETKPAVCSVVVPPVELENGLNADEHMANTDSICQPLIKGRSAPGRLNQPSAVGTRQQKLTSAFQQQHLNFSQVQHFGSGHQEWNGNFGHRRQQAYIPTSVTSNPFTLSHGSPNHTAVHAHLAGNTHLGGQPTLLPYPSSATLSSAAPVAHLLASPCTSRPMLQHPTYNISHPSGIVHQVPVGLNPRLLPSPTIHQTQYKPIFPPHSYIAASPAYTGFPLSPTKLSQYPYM
T1 sequence (P51617 whole entry): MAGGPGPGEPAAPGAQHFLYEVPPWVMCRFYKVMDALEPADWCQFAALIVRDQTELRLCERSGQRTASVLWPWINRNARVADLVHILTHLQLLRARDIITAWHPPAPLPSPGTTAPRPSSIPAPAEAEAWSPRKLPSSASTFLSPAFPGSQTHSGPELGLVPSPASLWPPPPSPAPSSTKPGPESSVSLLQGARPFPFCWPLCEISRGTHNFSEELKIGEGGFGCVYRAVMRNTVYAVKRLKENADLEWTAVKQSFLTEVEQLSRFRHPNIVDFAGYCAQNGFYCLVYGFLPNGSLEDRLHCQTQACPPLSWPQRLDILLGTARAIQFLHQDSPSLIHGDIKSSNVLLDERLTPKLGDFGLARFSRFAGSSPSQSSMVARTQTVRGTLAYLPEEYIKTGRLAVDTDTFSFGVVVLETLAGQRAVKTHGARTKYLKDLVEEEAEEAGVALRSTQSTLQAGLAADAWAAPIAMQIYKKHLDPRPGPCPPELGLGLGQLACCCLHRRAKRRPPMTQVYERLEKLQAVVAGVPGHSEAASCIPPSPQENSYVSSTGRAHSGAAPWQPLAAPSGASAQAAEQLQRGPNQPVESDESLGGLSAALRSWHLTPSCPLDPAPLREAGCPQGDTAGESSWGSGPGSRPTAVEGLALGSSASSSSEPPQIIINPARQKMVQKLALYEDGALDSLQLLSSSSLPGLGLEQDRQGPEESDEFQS
T7 sequence (P48736 whole entry): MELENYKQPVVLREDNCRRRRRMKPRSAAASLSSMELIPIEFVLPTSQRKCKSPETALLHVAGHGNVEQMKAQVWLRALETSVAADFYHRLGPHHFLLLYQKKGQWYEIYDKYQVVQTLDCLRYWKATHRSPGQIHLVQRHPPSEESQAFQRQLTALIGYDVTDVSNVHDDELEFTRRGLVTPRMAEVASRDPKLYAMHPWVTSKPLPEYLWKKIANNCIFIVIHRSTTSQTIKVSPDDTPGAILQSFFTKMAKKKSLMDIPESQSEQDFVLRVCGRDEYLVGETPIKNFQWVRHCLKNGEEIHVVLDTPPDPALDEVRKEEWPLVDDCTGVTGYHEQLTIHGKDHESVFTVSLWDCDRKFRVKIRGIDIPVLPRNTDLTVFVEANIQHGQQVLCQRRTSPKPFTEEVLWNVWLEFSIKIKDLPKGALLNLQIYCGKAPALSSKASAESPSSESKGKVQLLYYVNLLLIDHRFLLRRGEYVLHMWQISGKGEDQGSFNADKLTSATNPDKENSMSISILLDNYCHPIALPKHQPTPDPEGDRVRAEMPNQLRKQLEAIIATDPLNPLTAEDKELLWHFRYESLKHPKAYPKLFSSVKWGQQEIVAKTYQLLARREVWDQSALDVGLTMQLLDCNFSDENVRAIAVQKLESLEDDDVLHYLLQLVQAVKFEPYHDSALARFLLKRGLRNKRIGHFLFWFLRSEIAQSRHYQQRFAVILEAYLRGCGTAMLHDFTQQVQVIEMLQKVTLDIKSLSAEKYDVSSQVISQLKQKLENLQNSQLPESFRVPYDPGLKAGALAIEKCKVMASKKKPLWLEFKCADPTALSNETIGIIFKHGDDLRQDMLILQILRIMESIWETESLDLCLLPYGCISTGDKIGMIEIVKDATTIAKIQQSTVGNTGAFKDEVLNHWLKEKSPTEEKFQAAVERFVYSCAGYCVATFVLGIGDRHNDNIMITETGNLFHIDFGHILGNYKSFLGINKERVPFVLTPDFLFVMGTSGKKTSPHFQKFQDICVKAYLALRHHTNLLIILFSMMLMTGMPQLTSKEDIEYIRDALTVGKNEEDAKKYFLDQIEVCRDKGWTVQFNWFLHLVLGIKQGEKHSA
T5 sequence (P68400 whole entry): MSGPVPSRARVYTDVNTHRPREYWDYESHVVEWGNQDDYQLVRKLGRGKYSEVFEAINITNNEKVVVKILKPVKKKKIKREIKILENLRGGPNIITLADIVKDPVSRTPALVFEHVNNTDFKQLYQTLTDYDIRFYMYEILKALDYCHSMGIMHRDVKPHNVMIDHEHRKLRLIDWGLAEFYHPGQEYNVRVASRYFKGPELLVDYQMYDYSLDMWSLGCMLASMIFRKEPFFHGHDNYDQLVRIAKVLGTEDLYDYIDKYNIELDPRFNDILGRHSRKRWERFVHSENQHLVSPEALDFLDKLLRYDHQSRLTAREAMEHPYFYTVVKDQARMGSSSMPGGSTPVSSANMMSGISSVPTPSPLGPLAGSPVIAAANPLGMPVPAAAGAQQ

Compound: 4-(7-Methoxy-1-methyl-β-carbolin-9-yl)propionitrile [Compound 20-1o]
Human β-Cell proliferation ([1]; 10 μM): 1 (10)

Compound: COc1ccc2c(c1)[nH]c1c(Cl)nccc12 [Compound 1-5, 1-Chloro-7-Methoxy-9H-β-Carboline]
human β-cell proliferation (in words) [1, 16]: very good human β-cell proliferation
human β-cell proliferation (in words) ([1]; concentration not given): human β-cell proliferation comparable to that of harmine

Compound: COc1ccc2c(c1)[nH]c1c(N3CCC3)nccc12 [Compound 1-6a, 1-(Azetidin-1-yl)-7-Methoxy-9H-β-Carboline]
human β-cell proliferation (in words) ([1]; concentration not given): did not show any β-cell proliferation

Compound: COc1ccc2c(c1)[nH]c1c(N3CCCC3)nccc12 [Compound 1-6b, 1-(Pyrrolidin-1-yl)-7-Methoxy-9H-β-Carboline]
human β-cell proliferation (in words) ([1]; concentration not given): did not show any β-cell proliferation

Compound: COc1ccc2c(c1)[nH]c1c(N3CCCC3c3ccccc3)nccc12 (stereo not drawn) [Compound 1-6d, 1-(2-Phenylpyrrolidin-1-yl)-7-Methoxy-9H-β-Carboline]
human β-cell proliferation (in words) ([1]; concentration not given): did not show any β-cell proliferation

Compound: COc1ccc2c(c1)[nH]c1c(N3CCCC3Cc3ccccc3)nccc12 (stereo not drawn) [Compound 1-6f, 1-(2-Benzylpyrrolidin-1-yl)-7-Methoxy-9H-β-Carboline]
human β-cell proliferation (in words) ([1]; concentration not given): did not show any β-cell proliferation

Compound: COc1ccc2c(c1)[nH]c1c(CO)nccc12 [Compound 2-2, 1-Hydroxymethyl-7-Methoxy-9H-β-Carboline]
% DMSO Ctrl [2]: no inhibition
% DMSO Ctrl [3]: no inhibition
% DMSO Ctrl [4]: no inhibition
remaining binding at 10 µM [5]: 99%
beta cell toxicity ([1]; at 30 μM): did not cause toxicity
% DMSO Ctrl [6]: no inhibition
NFAT2 translocation to nucleus [7]: drove NFAT2 translocation to nucleus
% DMSO Ctrl [8]: no inhibition
remaining binding at 10 µM [9]: 44%
% DMSO Ctrl [10]: no inhibition
remaining binding at 10 µM [11]: 37%
remaining binding at 10 µM [12]: 77%

Compound: COc1ccc2c(c1)[nH]c1c(C(C)=O)nccc12 [Compound 3-2, 1-acetyl-7-methoxy-9H-β-carboline]
human β-cell proliferation (in words) [1, 16]: reduced β-cell proliferation
human β-cell proliferation (in words) ([1]; 30 μM): proliferation in the range comparable to harmine
human β-cell proliferation (in words) ([1]; concentration not given): human β-cell proliferation comparable to that of harmine

Compound: Cc1nccc2c1[nH]c1cc(OCCCCCC(N)=O)ccc12 [Compound 10-3e, 6-(7-oxy-1-methyl-9-H-b-carbolin)hexanamide]
Human β-Cell proliferation ([1]; 10 μM): 0.2 (10)
human β-cell proliferation (in words) ([1]; concentration not given): reduced jβ-cell proliferation compared to harmine

Compound: C=CCn1c2cc(OC)ccc2c2ccnc(C)c21 [Compound 20-1t, 3-(7-Methoxy-1-methyl-β-carbolin-9-yl)-propan-1-ene]
IC50 [13]: 42 nM

Compound: COc1ccc2c3ccnc(C)c3n(Cc3ccccc3)c2c1 [Compound 20-1x, 1-(7-Methoxy-1-methyl-β-carbolin-9-yl)-1-phenylmethane]
IC50 [13]: 275 nM

Compound: COc1ccc2c3ccnc(C)c3n(CCc3ccccc3)c2c1 [Compound 20-1y, 2-(7-Methoxy-1-methyl-β-carbolin-9-yl)-1-phenylethane]
IC50 [13]: 31 nM

Compound: COc1ccc2c3ccnc(C)c3n(CCCC(N)=O)c2c1 [Compound 20-2c, 4-(7-Methoxy-1-methyl-β-carbolin-9-yl)butanamide]
% DMSO Ctrl [14]: 57 % DMSO Ctrl
% DMSO Ctrl [15]: 38 % DMSO Ctrl

IC50 [13]: 77 nM
Compound: CCCC(C)NC(=O)C(C)(C)CCn1c2cc(OC)ccc2c2ccnc(C)c21 (stereo not drawn) [Compound 20-10l, N-(1-methylbutyl)-4-(7-Methoxy-1-methyl-β-carbolin-9-yl)-α,α-dimethylbutanamide]

Compound: C#CCCn1c2cc(OC)ccc2c2ccnc(C)c21 [Compound 20-23b, 4-(7-Methoxy-1-methyl-β-carbolin-9-yl)-but-1-yne]
IC50 [13]: 33 nM

IC50 [13]: 437 nM
Compound: COCCn1cc(CCCn2c3cc(OC)ccc3c3ccnc(C)c32)nn1 [Compound 20-24b, 4-(3-(7-Methoxy-1-methyl-β-carbolin-9-yl)propyl)-1-(2-methoxyethyl)-1,2,3-triazole]

IC50 [13]: 138 nM
Compound: COc1ccc2c3ccnc(C)c3n(Cc3noc(N)n3)c2c1 [Compound 20-38a, 1-(1-(7-methoxy-1-methyl-β-carbolin-9-yl)methyl)-5-amino-1,2,4-oxadiazole]

IC50 [13]: 66 nM
Compound: COc1ccc2c3ccnc(C)c3n(CCc3noc(N)n3)c2c1 [Compound 20-38b, 3-(3-(7-methoxy-1-methyl-β-carbolin-9-yl)ethyl)-5-amino-1,2,4-oxadiazole]

IC50 [13]: 103 nM
Compound: COc1ccc2c3ccnc(C)c3n(CCCCc3noc(N)n3)c2c1 [Compound 20-38c, 5-(5-(7-methoxy-1-methyl-β-carbolin-9-yl)butyl)-5-amino-1,2,4-oxadiazole]

IC50 [13]: 20 nM
Compound: COc1ccc2c3ccnc(C)c3n(CCC(C)(C)C(N)=O)c2c1 [Compound 20-40, 2,2-dimethyl-4-(7-Methoxy-1-methyl-β-carbolin-9-yl)butanamide]

Compound: Ethyl 4-(7-Methoxy-1-methyl-β-carbolin-9-yl)butanecarboximidate hydrochloride [Compound 20-22]
Human β-Cell proliferation ([1]; 10 μM): 0.8 (10)
